Earlier results as cited in patent publication US20170360732A1, “Methods and Drug Therapies for Patency of Occluded Blood Vessels Following Angioplasty” (NephroGenesis, LLC, priority 2014, published 2017).
Like-named read-outs stand apart in the source and are kept apart here.

Experiments:
[1] = not given; remark: listed apart in the source
[2] = system: vascular smooth muscle cells; settings: 100 μM, cultured cells
[3] = not given; remark: listed apart in the source
[4] = system: Type I and Type IV collagen; settings: 100 μM
lysyl oxidase = target: T1, lysyl oxidase (Homo sapiens, UniProt P28300)
T1 sequence (P28300 169-417): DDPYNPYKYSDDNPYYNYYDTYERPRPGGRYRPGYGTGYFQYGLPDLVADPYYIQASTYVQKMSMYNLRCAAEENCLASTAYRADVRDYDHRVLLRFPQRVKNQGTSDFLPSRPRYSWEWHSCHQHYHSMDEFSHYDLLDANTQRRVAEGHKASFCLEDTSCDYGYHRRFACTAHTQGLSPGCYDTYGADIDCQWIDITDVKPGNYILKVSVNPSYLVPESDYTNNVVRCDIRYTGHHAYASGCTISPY

[5] = system: peripheral blood monocytes
[6] = system: vascular smooth muscle cells; settings: within 30 minutes
[7] = system: arteries injured with balloon angioplasty; settings: oral, 6 months, rabbit, vs controls
[8] = system: vessel restenosis following angioplasty; settings: 28 days, rabbit model of atherosclerosis

SMILES: CC(C)(S)[C@@H](N)C(=O)O [D-penicillamine]
- side effects (intravenous administration): no reported side effects
- half-life (intravenous, patients with primary biliary cirrhosis): 1.43 h
- peak plasma level ([1]; 750 mg oral, patients): 3.0 µg/mL
- time to peak plasma level ([1]; 750 mg oral, patients): ≤ 3 h
- plasma levels achieved with typical clinical uses ([1]; typical clinical uses of the drug): 3000 ng/mL

SMILES: O=C1O[C@H]([C@@H](O)CO)C(O)=C1O [ascorbic acid]
- stimulatory effect upon Type III collagen (Type III collagen): no stimulatory effect
- reduction of vascular smooth muscle cell proliferation and migration [2]: up to 16%
- maximum plasma concentration ([3]; intravenous infusion, 70 gms/m2 (approximately 140 gms), 1000 mg/min, oncology patients): 50 mM
- side effects ([3]; rapid intravenous infusion, 70-110 gm/M^2, oncology patients): no significant side effects
- increase of expression of Type I and Type IV collagen [4]: 200%-250%
- inhibition of lysyl oxidase activity (lysyl oxidase; 0.2 μM): up to 79%
- inhibition of lysyl oxidase activity (lysyl oxidase; 2.0 μM, 1 hour after drug administration): 90%
- inhibition of lysyl oxidase activity (lysyl oxidase; 2.0 μM, within 5 minutes): completely inhibited
- inhibition of lysyl oxidase activity (lysyl oxidase; 10 μM, within 15 minutes): 100%

SMILES: NCCN [ethylenediamine]
- blocking of lysyl oxidase-stimulated monocyte migration [5]: blocked

SMILES: N#CCCN [β-aminopropionitrile]
- inhibition of migration of vascular smooth muscle cells [6]: 80%
- reduction in cross-sectional diameter of the arteries injured with balloon angioplasty [7]: 60%
- blocking of lysyl oxidase-stimulated monocyte migration [5]: blocked
- reduction of vessel restenosis following angioplasty [8]: 33%
